Measured values taken from ChEMBL document CHEMBL1201862, “PubChem BioAssay data set” (2004).
Activity calls are given as the source filed them.

Columns and labels:
[1] = target: T1, Ubiquitin-conjugating enzyme E2 N (Homo sapiens, UniProt P61088); type: functional;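 further: Dose-response confirmation in a TR-FRET assay detecting UBC13-driven polyubiquitin chain formation, inhibition measured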
T1 sequence (P61088 whole entry): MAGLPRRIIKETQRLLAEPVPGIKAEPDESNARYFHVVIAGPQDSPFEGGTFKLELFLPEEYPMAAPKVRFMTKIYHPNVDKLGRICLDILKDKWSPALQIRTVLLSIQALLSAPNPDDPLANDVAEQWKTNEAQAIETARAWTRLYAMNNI

[2] = target: T2, Replicative DNA helicase DnaB (Mycobacterium tuberculosis, UniProt P9WMR3); assay: DnaB intein splicing inhibitors, dose response, biochemical, cell-free fluorescence (AID 449749); type: functional
T2 sequence (P9WMR3 whole entry): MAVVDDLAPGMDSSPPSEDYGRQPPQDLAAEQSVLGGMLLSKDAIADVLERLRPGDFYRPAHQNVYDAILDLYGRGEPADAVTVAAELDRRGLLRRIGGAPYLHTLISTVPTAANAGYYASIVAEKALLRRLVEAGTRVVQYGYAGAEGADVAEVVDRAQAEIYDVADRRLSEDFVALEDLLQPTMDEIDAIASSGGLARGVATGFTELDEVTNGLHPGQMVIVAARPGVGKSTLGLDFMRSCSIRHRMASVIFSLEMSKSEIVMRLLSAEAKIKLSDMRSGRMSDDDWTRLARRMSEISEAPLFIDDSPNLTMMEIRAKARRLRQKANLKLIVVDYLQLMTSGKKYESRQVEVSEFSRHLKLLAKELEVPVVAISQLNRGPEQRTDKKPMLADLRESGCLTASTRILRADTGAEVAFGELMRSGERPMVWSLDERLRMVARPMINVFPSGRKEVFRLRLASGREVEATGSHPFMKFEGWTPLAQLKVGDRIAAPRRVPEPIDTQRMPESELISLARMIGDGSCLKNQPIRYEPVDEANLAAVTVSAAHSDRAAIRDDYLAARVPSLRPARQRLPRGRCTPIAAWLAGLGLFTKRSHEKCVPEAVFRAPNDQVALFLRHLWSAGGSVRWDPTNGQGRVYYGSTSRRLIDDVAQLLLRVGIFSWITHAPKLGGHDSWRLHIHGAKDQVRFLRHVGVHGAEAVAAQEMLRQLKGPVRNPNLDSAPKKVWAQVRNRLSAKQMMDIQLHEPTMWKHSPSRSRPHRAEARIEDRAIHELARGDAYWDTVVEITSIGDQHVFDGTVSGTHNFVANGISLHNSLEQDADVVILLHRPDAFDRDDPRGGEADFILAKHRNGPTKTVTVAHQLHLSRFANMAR

Protein RecA = target: T3, Protein RecA (Mycobacterium tuberculosis, UniProt P9WHJ3); assay: Fluorescence Cell-Free Homogeneous Dose Retest to Identify Inhibitors of RecA-Intein Splicing Activity. [Related pubchem assays (depositor defined):AID2097, AID2223, AID489010, AID492950]; type: functional
T3 sequence (P9WHJ3 whole entry): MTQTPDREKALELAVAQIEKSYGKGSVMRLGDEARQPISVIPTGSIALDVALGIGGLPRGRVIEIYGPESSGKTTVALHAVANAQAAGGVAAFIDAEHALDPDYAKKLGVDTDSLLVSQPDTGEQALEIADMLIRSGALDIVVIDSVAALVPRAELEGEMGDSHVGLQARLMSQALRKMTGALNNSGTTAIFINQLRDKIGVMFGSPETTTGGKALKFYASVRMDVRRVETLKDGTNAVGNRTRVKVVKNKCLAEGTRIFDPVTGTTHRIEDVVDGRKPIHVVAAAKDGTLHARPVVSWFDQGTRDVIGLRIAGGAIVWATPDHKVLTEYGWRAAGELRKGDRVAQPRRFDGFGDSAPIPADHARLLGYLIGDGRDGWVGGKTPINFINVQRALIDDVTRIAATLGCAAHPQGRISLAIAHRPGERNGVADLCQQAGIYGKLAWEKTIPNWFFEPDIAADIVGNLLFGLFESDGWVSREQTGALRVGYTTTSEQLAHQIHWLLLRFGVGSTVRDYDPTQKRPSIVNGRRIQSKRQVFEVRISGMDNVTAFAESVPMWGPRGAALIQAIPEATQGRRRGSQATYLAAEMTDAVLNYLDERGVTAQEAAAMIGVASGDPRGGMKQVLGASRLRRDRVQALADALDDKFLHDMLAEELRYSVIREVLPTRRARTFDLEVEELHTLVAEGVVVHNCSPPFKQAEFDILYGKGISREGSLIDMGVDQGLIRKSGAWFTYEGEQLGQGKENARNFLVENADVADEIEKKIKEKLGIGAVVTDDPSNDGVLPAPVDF

[3] = target: T4, Polyadenylate-binding protein 1 (Homo sapiens, UniProt P11940); assay: MLLE binding blockers, Cy5 peptide tracer – biochemical, fluorescence polarization, Cy5-PAM2 peptide, secondary, miRNA deadenylation inhibitor project, dose response (AID 602260); type: functional; conditions: read-out: IC50_Mean
[4] = target: T4, Polyadenylate-binding protein 1; assay: MLLE domain peptide-binding blockers, IC50 – biochemical, fluorescence polarization, FITC-PAM2 peptide, dose response (AID 602259); type: functional; conditions: read-out: IC50_Mean
[5] = HEK-293T cell viability reduction – luminescence, B-cell screen hits, cytotoxicity control for BCR NF-kB inhibitor project, dose response (AID 489021); type: functional, cell-based;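 further: HEK-293T cells carrying an NF-kB luciferase reporter; cells exposed to compound for about 14 hours before viability readout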
Beta-galactosidase [6] = target: T5, Beta-galactosidase (Escherichia coli, UniProt Q8VNN2); assay: Dose response counterscreen for EBI2 assay utilizing the enzyme, b-galactosidase.; type: functional
Melanocortin receptor 4 = Melanocortin receptor 4 (Homo sapiens, UniProt P32245); assay: inhibitors of MC4R cAMP signaling – cell-based, TR-FRET, biased antagonists, dose response (AID 602298); type: functional;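 further: antagonist potency against agonist-stimulated cAMP production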
[7] = cAMP pathway inhibition in counterscreen cell line – TR-FRET cAMP detection, counter-screen for MC4R biased antagonist project, dose response (AID 602305); type: functional, cell-based;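 further: U2OS cells stimulated with forskolin near its EC80 as the cAMP inducer; potency is for inhibition of forskolin-stimulated cAMP signaling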
Coagulation factor XII = target: T6, Coagulation factor XII (Homo sapiens, UniProt P00748); type: functional;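 further: activated factor XIIa alpha cleaving a fluorogenic AMC peptide substrate; inhibitor potency from loss of enzyme activity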
T6 sequence (P00748 whole entry): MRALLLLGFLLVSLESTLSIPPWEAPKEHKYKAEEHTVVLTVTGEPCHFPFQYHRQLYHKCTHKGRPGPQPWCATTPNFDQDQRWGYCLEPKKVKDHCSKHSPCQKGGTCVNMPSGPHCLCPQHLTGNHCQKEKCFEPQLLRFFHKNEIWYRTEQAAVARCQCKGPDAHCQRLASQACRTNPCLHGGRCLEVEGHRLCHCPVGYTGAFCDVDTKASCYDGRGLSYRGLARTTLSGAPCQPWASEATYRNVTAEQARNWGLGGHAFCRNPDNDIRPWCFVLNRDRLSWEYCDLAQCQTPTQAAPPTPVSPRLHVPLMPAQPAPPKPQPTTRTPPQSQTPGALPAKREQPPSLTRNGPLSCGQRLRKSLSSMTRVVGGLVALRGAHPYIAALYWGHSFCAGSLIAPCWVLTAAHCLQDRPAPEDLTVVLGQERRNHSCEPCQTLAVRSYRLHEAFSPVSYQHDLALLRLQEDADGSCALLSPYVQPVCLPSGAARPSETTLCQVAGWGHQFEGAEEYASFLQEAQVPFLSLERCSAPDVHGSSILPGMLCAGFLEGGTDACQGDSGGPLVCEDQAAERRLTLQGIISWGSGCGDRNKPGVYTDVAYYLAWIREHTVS

Vero [8] = assay: cells; type: functional, cell-based; conditions: Chlorocebus sabaeus
Vero [9] = assay: cells; type: functional; conditions: Chlorocebus sabaeus
Beta-galactosidase [10] = target: T5, Beta-galactosidase; assay: PubChem AID 485352; type: functional
[11] = target: T7, Type-1 angiotensin II receptor (Homo sapiens, UniProt P30556); assay: antagonism of angiotensin II type 1 receptor – cell-based, uHTS hits, selectivity assay for APJ receptor antagonist project, dose response (AID 463214); type: functional;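 further: antagonist potency against angiotensin II stimulated AT1 response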
T7 sequence (P30556 whole entry): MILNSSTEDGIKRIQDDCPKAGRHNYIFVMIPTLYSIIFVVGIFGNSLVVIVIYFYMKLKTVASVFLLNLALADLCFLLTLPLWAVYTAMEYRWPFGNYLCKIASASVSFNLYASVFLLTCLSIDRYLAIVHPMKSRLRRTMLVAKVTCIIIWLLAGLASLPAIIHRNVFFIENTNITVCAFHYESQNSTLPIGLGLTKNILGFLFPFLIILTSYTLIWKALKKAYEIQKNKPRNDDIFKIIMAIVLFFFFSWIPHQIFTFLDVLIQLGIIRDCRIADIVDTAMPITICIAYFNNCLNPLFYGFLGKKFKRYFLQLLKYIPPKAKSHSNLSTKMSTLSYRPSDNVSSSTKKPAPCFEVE

[12] = tested on: Streptococcus sp. 'group A'; assay: Streptococcus pyogenes SK(-)GAS viability under kanamycin – luminescence, BacTiterGlo, confirmation, counter-screen for streptokinase expression inhibitor project, dose response (AID 1900); type: functional, organism-based
Streptokinase A = target: T8, Streptokinase A (Streptococcus pyogenes serotype M1, UniProt P10520); assay: viability-normalized secreted streptokinase activity reduction – plasminogen activation absorbance, OD405, dose response (AID 1914); type: functional, Streptococcus pyogenes M1 GAS;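 further: secreted streptokinase activity via plasminogen activation per viability signal from cell pellet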
T8 sequence (P10520 whole entry): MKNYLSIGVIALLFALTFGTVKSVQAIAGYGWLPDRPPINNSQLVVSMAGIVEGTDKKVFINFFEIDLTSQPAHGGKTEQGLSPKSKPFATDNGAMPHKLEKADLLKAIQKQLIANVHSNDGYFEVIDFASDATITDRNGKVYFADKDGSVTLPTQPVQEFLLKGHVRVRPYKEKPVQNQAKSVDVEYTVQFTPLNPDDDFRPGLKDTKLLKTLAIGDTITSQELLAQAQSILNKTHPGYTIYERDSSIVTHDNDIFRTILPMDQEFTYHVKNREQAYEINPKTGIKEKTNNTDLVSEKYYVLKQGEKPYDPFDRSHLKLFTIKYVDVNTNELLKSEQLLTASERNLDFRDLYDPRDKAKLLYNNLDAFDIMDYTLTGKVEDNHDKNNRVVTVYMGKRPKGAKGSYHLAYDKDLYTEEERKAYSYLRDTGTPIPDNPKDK

Streptococcus = assay: GAS UMAA2166 growth inhibition – luminescence, BacTiterGlo, counter-screen for streptokinase expression inhibitor project, dose response (AID 1915); type: functional, organism-based;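 further: potency for reduction of bacterial viability or growth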
[13] = Trypanosoma cruzi growth suppression in host cells – NIH3T3 host cells, beta-gal luminescence, confirmation (AID 2044); type: functional, cell-based;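 further: intracellular parasites grown in NIH/3T3 mouse fibroblasts as host cells; luminescent beta-galactosidase reporter signal from transgenic T. cruzi replicating inside host cells; inhibitors lower the luminescence signal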

T5 sequence (Q8VNN2 whole entry): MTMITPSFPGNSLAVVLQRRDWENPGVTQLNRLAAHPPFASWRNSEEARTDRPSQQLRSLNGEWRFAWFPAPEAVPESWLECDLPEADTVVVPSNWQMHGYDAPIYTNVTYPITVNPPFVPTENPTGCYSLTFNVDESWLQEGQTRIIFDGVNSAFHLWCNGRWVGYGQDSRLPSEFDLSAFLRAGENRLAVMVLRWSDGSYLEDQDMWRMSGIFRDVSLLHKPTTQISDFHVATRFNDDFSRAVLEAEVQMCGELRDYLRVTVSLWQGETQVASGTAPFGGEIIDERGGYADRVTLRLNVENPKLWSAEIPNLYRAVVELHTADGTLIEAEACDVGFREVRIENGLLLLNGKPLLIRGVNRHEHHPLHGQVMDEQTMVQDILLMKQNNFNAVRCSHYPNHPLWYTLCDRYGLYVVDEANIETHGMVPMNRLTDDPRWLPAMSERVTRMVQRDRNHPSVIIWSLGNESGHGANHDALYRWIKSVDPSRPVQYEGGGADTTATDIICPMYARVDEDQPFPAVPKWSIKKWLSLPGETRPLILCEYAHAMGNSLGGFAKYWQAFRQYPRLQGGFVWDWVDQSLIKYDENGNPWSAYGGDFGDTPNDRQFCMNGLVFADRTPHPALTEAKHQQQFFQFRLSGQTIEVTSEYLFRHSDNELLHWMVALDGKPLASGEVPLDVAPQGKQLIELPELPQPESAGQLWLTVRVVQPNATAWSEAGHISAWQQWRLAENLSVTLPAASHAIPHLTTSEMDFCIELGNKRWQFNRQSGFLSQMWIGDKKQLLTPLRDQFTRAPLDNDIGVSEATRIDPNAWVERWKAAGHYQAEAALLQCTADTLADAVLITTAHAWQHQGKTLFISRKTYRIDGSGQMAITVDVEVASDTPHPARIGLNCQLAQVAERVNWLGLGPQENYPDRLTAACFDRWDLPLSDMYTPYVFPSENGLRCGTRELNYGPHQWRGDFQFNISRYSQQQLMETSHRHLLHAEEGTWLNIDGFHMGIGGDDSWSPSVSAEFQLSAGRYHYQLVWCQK
T4 sequence (P11940 whole entry, the tested form may be a part): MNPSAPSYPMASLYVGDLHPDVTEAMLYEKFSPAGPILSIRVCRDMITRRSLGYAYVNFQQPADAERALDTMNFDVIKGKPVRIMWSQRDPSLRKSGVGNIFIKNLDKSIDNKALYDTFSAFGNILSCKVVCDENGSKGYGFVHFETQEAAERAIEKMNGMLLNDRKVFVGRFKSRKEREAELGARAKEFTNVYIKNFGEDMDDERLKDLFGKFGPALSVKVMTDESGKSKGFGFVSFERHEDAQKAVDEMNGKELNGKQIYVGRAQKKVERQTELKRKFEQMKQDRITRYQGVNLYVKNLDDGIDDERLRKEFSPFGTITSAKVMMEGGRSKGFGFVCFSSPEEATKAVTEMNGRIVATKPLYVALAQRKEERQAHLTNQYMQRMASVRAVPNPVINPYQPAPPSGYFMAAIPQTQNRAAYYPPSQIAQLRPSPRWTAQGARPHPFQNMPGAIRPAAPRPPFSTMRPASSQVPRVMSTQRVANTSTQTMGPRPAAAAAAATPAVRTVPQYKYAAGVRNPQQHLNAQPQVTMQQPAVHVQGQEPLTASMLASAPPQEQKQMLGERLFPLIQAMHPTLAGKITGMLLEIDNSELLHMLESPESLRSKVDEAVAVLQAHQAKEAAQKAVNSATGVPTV
Sequence of Melanocortin receptor 4 (P32245 whole entry): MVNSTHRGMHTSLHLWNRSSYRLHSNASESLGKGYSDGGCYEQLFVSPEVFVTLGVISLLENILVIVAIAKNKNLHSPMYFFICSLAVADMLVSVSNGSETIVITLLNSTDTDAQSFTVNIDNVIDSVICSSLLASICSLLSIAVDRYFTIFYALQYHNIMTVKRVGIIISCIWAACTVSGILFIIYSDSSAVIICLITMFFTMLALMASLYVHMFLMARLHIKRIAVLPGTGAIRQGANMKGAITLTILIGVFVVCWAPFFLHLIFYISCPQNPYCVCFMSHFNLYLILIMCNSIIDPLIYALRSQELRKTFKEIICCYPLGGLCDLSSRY

SMILES: CCN=C(S)N=Nc1c(O)[nH]c2ccc([N+](=O)[O-])cc12
- IC50 [1]: > 20 µM (inactive)
- AC50 [2]: > 380 µM (inactive)
- EC50 (Protein RecA): 56.6 µM (active)
- IC50 [3]: > 66 µM (inactive)
- IC50 [4]: > 66 µM (inactive)

SMILES: Cc1ccc(-c2[nH]c(C(=O)NCC3CCCO3)cc3c4ccccc4nc2-3)cc1 (stereo not given)
- IC50 [5]: > 80 µM (inactive)

SMILES: O=C(/C=C/c1ccc([N+](=O)[O-])cc1)N1CCN(S(=O)(=O)c2ccccc2)CC1
- IC50 (Beta-galactosidase [6]): > 80 µM (inactive)

SMILES: O=C(NNC(=O)C12CC3CC(CC(Br)(C3)C1)C2)c1ccccc1F
- IC50 [5]: > 80 µM (inactive)

SMILES: COc1ccccc1C1(CCNC(C)c2cccs2)CCOC(C(C)C)C1 (stereo not given)
- IC50 (Melanocortin receptor 4): 10.1 µM (inactive)
- IC50 [7]: > 64.5 µM (inactive)

SMILES: CCOC(=O)C(C(=O)NCc1cccc(OC)c1)c1ncc(C(F)(F)F)cc1Cl (stereo not given)
- IC50 (Coagulation factor XII): > 50 µM (inactive)

SMILES: CCOC(=O)c1c(SCCN2CCCCC2)n(-c2ccccc2)c(=S)n(-c2ccccc2)c1=O
- IC50 (Vero [8]): 20.1 µM (active)
- CC50 (Vero [9]): > 25 µM (active)

SMILES: Cc1ccc(OCC(=O)N2CCN(S(=O)(=O)c3ccc4c(c3)OCCO4)CC2)c(C)c1
- IC50 (Beta-galactosidase [6]): > 80 µM (inactive)

SMILES: O=[N+]([O-])c1cccc(/C=N/NS(=O)(=O)c2ccccc2)c1
- EC50 (Beta-galactosidase [10]): > 40 µM (inactive)
- IC50 [11]: 24.3 µM (not active)

SMILES: Cc1ccc(Cn2cc(/C=N/NC(=O)Cc3nnc(NC(=O)c4ccc(C)cc4)s3)c3ccccc32)cc1
- EC50 [12]: 2.5 µM (active)
- EC50 (Streptokinase A): > 150 µM (not active)
- EC50 (Streptococcus): 36.9 µM (active)
- IC50 (Coagulation factor XII): > 50 µM (inactive)

SMILES: Cc1ccc(Nc2nc(N/N=C\c3ccc4c(c3)OCO4)nc(N3CCOCC3)n2)cc1
- EC50 [12]: 21.8 µM (active)
- EC50 (Streptokinase A): 111 µM (active)
- EC50 [13]: 0.393 µM (active)
- EC50 (Streptococcus): > 150 µM (not active)
- IC50 [5]: 63.2 µM (inactive)
